Results: US9187518B2, “Antiangiogenic brassinosteroid compounds” (CONSEJO NACIONAL DE INVESTIGACIONES CIENTIFICAS Y TECNICAS …, priority 2011, dated 2015)

Experiments:
[1] = tested on: HSV-1; experiment: Murine model of HSV-1 corneal infection (herpetic stromal keratitis, HSK); assay type: in vivo, mice
[2] = tested on: J774A.1 cells stimulated with LPS; experiment: Microarray gene expression in J774A.1 cells stimulated with LPS; assay type: cell-based, mouse; settings: J774A.1, 100 ng/ml LPS, 40 μM, 6 h
Method: (§1) HSV-1 infected cells and LPS stimulated cells were transcriptionally analyzed by using the whole human genome microarray and whole mouse genome microarray (Agilent Technologies, Santa Clara, Calif.), corresponding to 41,000 human or mice genes and transcripts.
(§2) RNA was extracted with chloroform/isopropanol and purified from Trizol.
(§3) cDNA synthesis, amplification and labeling of cRNA was performed, following the protocol of two colors of Agilent. Cyanine: 3-CTP and 5-CTP labeled cRNA was prepared from purified RNA (Two-Color Microarray-Based Gene Expression Analysis—Quick Amp Labeling, Agilent). Labeled cRNA was purified, quantified and the efficiency of labeling determined.
After that, we proceeded with the hybridization, washing, assembling of the chips and scanning. The scanner software (Feature extraction) performed the scan quality control. The fluorescence intensity data obtained for each chip were analyzed using GeneSpring XG11 and Multi Experiment Viewer (MeV) programs.
Labeled samples were placed in human and mouse hybridizing chips for HCLE and J774A.1 cells, respectively, during 17 h at 60° C. Successive washings were done with different washing, stabilization and drying solutions, and samples were scanned in the Agilent scanner G2565BA.
(§4) We used the commercial software Agilent Feature Extraction for quality control of the scan. The software converts the scanned images produced in quantitative data for further analysis. It calculates the errors associated with hybridization, washing and scanning and detects outliers. On the one hand, it performs an analysis of the image to locate the grid on the chip and in it, the spots for each gene, and on the other hand, it makes an analysis of data, to define and measure information (fluorescence intensity) of each spot, for the analysis of gene expression.
We identified differentially expressed genes with statistical significance. We used two programs, the XG11 and GeneSpring and the Multi Experiment Viewer (MeV).
For this purpose, epithelial infected and inflammatory cells were processed to obtain RNA samples. HCLE cells infected with HSV-1 (m.o.i.=1) and J774A.1 cells stimulated with LPS (100 ng/ml) were treated or not with 40 μM of Compound 1. To extract total RNA, cells were harvested with Trizol at 6 h p.i. and at 6 h post-LPS induction. Eight replicates were obtained from HSV-1 infected and LPS-stimulated cells (four ‘control’ each) and other eight, from infected and LPS-stimulated cells treated with Compound 1 (four ‘treated’ each).

[3] = tested on: human corneal cells; experiment: Cytotoxicity assay, corneal cells; assay type: cell-based
Method: (§5) Cell viability was determined as previously reported. The absorbance of each well was measured on a Eurogenetics MPR-A 4i microplate reader using a test wavelength of 570 nm and a reference wavelength of 630 nm. Results were expressed as a percentage of absorbance of treated cells with respect to untreated ones. The CC50 was defined as the concentration of compound that caused 50% reduction in cell viability.

[4] = tested on: TNF-α; experiment: TNF-α secretion in epithelial cells (ELISA); assay type: cell-based, human
[5] = tested on: IL-8; experiment: IL-8 secretion in epithelial cells (ELISA); assay type: cell-based, human
[6] = tested on: IL-6; experiment: IL-6 secretion in LPS-stimulated J774A.1 macrophages (ELISA); assay type: cell-based, murine; settings: J774A.1 stimulated with 100 ng/ml LPS 8 h, 40 μM
Method: J774A.1 cells grown in 24-well plates were incubated at 37° C. with 100 ng/ml of LPS, in duplicate. After 8 h, supernatants were harvested and murine IL-6 was quantified by commercial ELISA sets (BD OptEIA™, Becton Dickinson, USA) according to manufacturer instructions.

[7] = tested on: HCLE cells infected with HSV-1; experiment: Microarray gene expression in HCLE cells infected with HSV-1; assay type: cell-based, human; settings: HCLE infected with HSV-1 (m.o.i.=1), 40 μM, 6 h, vs infected untreated
Method: as §1, §2, §3
After that, we proceeded with the hybridization, washing, assembling of the chips and scanning. […] The fluorescence intensity data obtained for each chip were analyzed using GeneSpring XG11 and Multi Experiment Viewer (MeV) programs. […]
as §4, with “It calculates the errors associated with hybridization, washing and scanning and detects outliers.” left out, “expression. […]” for “expression.”

[8] = tested on: HSV-1; experiment: Anti-HSV-1 activity (multiplication and viral spreading) in human conjunctival and corneal cells; assay type: cell-based, Herpes simplex virus type 1
[9] = tested on: LMM3 cells; experiment: In vivo neovascular response induced by LMM3 cells in BALB/c mice; settings: intradermal, 5 days
Method: For the in vivo assay, 2×10^6 cells/mL were grown in 1 mL of complete medium in 6 wells plates. Compound 1 was incubated with LMM3 cells during 1 h and 6 hs. Also, a group of non-treated tumoral cells were grown and incubated. Then, all the cells from each group were washed with PBS, trypsinized and re-suspended in 0.9 ml of F12 medium without FBS.
Female BALB/c mice were randomized as follows:
• Sham N=4 • LMM3 N=4 • LMM3+Compound 1-1 hour treatment N=4 • LMM3+Compound 1-6 hours treatment N=4
Then, inoculation of 2×10^5 cells/0.1 mL was done intradermically in the mouse flanks. After 5 days the animals were sacrificed and photographs of the inoculation site were taken.
The vessels density was quantified in each animal and the results were analized by ANOVA followed by the Tukey test. Results were expressed as the median of vessels density (vessels/mm^2+/−ES).

[10] = tested on: human conjunctival cells; experiment: Cytotoxicity assay, conjunctival cells; assay type: cell-based
Method: as §5

[11] = tested on: IL-6; experiment: IL-6 secretion in epithelial cells (ELISA); assay type: cell-based, human
[12] = uninfected treated cells, compound alone

CC[C@@H](C(C)C)[C@H](O)[C@@H](O)[C@@H](C)[C@H]1CC[C@H]2[C@@H]3CCC4=CC(=O)CC[C@]4(C)[C@H]3CC[C@]12C [Compound 1, (22S,23S)-22,23-dihydroxystigmast-4-en-3-one]
antiviral activity in vivo ([1]; HSV-1 infected mice): no antiviral activity in vivo
signs of keratitis ([1]; administered during the first 3 days after HSV-1 infection): significantly restrained
incidence and severity of HSK ([1]; murine model of HSV-1 corneal infection, in presence of replicative virus and after immune response triggered): significantly decreases
incidence and severity of neovascularization in infected corneas ([1]; treated from day 1 p.i. onwards, and at onset of disease, 6 days p.i. (data not shown)): decreased
Dusp2 gene expression [2]: restrained
expression of ATF3 and TLR4 [2]: overexpressed
expression of IL-10 and Socs2 ([2]; vs untreated control): increased
expression of genes for IL-12, IL-23 and CXCL10 ([2]; vs untreated stimulated): overexpression
cytotoxicity [3]: no cytotoxicity
TNF-α production ([4]; HSV-1 infected IOBA-NHC cells, 40 μM, 24 h): did not affect TNF-α production
TNF-α release [4, 12]: did not induce TNF-α release by itself
IL-8 secretion ([5]; HSV-1 infected HCLE cells, 40 μM, 24 h (untreated infected 142.9±0.5)): 163.6 ± 0.4 pg/mL
IL-8 secretion ([5]; HSV-1 infected IOBA-NHC cells, 40 μM, 24 h (untreated infected 252±7.8)): 471.8 ± 30 pg/mL
IL-8 secretion ([5]; uninfected HCLE cells, compound alone, vs basal level): considerably increased
IL-8 secretion ([5]; uninfected IOBA-NHC cells, compound alone, vs basal level): considerably increased
IL-6 level [6]: 838 ± 4.2 pg/mL
expression of IL-1α, IL-8 and CXCL-2 [7]: overexpression
expression of macrophage colony stimulating factor (CSF-2) [7]: overexpression
HSV-1 multiplication and viral spreading ([8]; human conjunctival cells): prevents
selectivity indices (SI) ([8]; human conjunctival cells): 13.2
HSV-1 multiplication and viral spreading ([8]; human corneal cells): prevents
selectivity indices (SI) ([8]; human corneal cells): 9.3
angiogenic response induced by LMM3 cells (vessel density) ([9]; LMM3 cells pre-incubated with 0.025 μg/μl during 1 h): significantly reduced
angiogenic response induced by LMM3 cells (vessel density) ([9]; LMM3 cells pre-incubated with 0.025 μg/μl during 6 h): significantly reduced
cytotoxicity [10]: no cytotoxicity
IL-6 release ([11]; HSV-1 infected HCLE cells, 40 μM, 24 h, vs infected control): did not elicit any change
IL-6 release ([11]; HSV-1 infected IOBA-NHC cells, 40 μM, 24 h, vs infected control): did not elicit any change
IL-6 release [11, 12]: did not induce IL-6 release by itself
